Data as given in US20090111801A1, “SUBSTITUTED PYRAZINONE DERIVATIVES FOR USE AS A MEDICINE” (Janssen Pharmaceutica N.V., priority 2006, published 2009).

Assays:
hα2A receptor = molecular target: T1, hα2A receptor (Homo sapiens, UniProt P08913); test: Radioligand binding experiment for α2A-adrenoceptor ([3H]raulwolscine, CHO cell membranes); conditions: [3H]raulwolscine binding; for IC50: read-out: h-α2A pIC50 (converted)
T1 construct: expressed in transfected cells; host or cells: CHO cells, stably transfected; membrane preparation
T1 sequence (P08913 1-465): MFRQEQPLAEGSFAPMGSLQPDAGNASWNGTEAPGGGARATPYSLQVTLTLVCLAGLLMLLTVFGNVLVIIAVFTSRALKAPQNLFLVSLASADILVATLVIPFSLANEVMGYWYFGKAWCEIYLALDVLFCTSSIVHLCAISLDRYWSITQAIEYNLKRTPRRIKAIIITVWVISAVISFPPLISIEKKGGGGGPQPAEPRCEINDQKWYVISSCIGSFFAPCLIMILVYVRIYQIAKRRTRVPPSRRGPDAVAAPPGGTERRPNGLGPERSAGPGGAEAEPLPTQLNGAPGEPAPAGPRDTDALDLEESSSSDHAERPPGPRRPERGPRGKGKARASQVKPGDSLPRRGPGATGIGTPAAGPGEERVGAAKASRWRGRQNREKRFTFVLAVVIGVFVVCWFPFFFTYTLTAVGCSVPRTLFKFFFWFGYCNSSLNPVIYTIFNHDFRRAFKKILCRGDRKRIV
Procedure: (§1) The interaction of a compound of Formula (I) with α2-adrenoceptor receptors was assessed in in vitro radioligand binding experiments. In general, a low concentration of a radioligand with a high binding affinity for a particular receptor or transporter is incubated with a sample of a tissue preparation enriched in a particular receptor or transporter or with a preparation of cells expressing cloned human receptors in a buffered medium. During the incubation, the radioligand binds to the receptor or transporter. When equilibrium of binding is reached, the receptor bound radioactivity is separated from the non-bound radioactivity, and the receptor- or transporter-bound activity is counted. The interaction of the test compounds with the receptor is assessed in competition binding experiments. Various concentrations of the test compound are added to the incubation mixture containing the receptor- or transporter preparation and the radioligand. The test compound in proportion to its binding affinity and its concentration inhibits binding of the radioligand. The radioligand used for hα2A and hα2C receptor binding was [^3H]-raulwolscine.
(§2) CHO cells, stabile transfected with human adrenergic-α2A and α2C receptor cDNA, were cultured in Dulbecco's Modified Eagle's Medium (DMEM)/Nutrient mixture Ham's F12 (ratio 1:1)(Gibco, Gent-Belgium) supplemented with 10% heat inactivated fetal calf serum (Life Technologies, Merelbeke-Belgium) and antibiotics (100 IU/ml penicillin G, 100 μg/ml streptomycin sulphate, 110 μg/ml pyruvic acid and 100 μg/ml L-glutamine). One day before collection, cells were induced with 5 mM sodiumbutyrate. Upon 80-90% of confluence, cells were scraped in phosphate buffered saline without Ca^2+ and Mg^2+ and collected by centrifugation at 1500×g for 10 minutes. The cells were homogenised in Tris-HCl 50 mM using an Ultraturrax homogenizer and centrifuged for 10 minutes at 23,500×g. The pellet was washed once by resuspension and rehomogenization and the final pellet was resuspended in Tris-HCl, divided in 1 ml aliquots and stored at −70° C.
(§3) Membranes were thawed and re-homogenized in incubation buffer (glycylglycine 25 mM, pH 8.0). […] Filters were rinsed extensively with ice-cold rinsing buffer (Tris-HCl 50 mM pH 7.4). Filter-bound radioactivity was determined by scintillation counting in a Topcount (Packard, Meriden, Conn.) and results were expressed as counts per minute (cpm). Non-specific binding was determined in the presence of 1 μM oxymetazoline for the hα2A receptor and 1 μM spiroxatrine for hα2C receptor.
(§4) Data from assays in the presence of compound were calculated as a percentage of total binding measured in the absence of test compound. Inhibition curves, plotting percent of total binding versus the log value of the concentration of the test compound, were automatically generated, and sigmoidal inhibition curves were fitted using non-linear regression. The pIC50 values of test compounds were derived from individual curves.

hα2C receptor = molecular target: T2, hα2C receptor (Homo sapiens, UniProt P18825); test: Radioligand binding experiment for α2C-adrenoceptor ([3H]raulwolscine, CHO cell membranes); conditions: [3H]raulwolscine binding; for IC50: read-out: h-α2C pIC50 (converted)
T2 construct: expressed in transfected cells; host or cells: CHO cells, stably transfected; membrane preparation
T2 sequence (P18825 1-462): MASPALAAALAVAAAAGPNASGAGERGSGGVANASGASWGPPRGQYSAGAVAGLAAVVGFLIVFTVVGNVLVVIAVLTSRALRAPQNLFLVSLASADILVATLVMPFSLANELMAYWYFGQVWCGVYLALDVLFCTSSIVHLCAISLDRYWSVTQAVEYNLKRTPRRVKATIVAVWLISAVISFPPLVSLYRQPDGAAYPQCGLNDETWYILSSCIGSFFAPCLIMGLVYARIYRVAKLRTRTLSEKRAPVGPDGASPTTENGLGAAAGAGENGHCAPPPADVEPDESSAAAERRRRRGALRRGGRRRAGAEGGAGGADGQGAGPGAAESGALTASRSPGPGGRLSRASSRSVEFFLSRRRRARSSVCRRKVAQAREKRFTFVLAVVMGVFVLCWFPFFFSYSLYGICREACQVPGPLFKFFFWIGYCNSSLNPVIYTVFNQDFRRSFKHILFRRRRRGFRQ
Procedure: as §1, §2, §3, §4

5HT-Transporter = molecular target: T3, 5HT-Transporter (Homo sapiens, UniProt P31645); test: Binding experiment for the 5HT-transporter ([3H]paroxetine, human platelet membranes); conditions: [3H]paroxetine 0.5 nM; for IC50: read-out: h-5HTT pIC50 (converted)
T3 construct: Human platelet membranes (Oceanix Biosciences Corporation, Hanover, Md., USA) were thawed; tissue Oceanix Biosciences Corporation, Hanover, Md., USA; host or cells: human platelet membranes
T3 sequence (P31645 whole entry): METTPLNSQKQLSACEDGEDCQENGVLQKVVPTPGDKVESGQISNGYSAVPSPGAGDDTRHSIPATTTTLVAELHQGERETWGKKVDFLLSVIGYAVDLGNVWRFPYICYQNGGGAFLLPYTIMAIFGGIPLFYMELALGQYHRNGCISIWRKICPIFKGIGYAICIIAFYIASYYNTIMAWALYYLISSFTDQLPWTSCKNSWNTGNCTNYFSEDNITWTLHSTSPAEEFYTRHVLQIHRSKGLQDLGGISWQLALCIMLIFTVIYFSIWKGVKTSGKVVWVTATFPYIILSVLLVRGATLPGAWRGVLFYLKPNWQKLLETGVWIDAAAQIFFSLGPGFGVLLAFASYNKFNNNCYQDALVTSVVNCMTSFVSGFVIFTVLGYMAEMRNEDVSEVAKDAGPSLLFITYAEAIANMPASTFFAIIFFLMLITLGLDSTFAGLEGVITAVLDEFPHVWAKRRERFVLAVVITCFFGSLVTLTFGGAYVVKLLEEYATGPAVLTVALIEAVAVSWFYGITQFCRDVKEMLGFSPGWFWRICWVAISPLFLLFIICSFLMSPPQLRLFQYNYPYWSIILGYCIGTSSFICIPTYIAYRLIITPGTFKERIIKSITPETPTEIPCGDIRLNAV
Procedure: as §1
Human platelet membranes (Oceanix Biosciences Corporation, Hanover, Md., USA) were thawed, diluted in buffer (Tris-HCl 50 mM, 120 mM NaCl and 5 mM KCl) and quickly (max 3 s) homogenised with an Ultraturrax homogenizer. […] Incubation was stopped by rapid filtration of the incubation mixture over GF/B filters, pre-wetted with 0.1% polyethyleneamine, using a Filtermate196 harvester (Packard, Meriden, Conn.). Filters were rinsed extensively with ice-cold buffer and radioactivity on the filters was counted in a Topcount liquid scintillation counter (Packard, Meriden, Conn.). Data were expressed as cpm. Imipramine (at 1 μM final concentration) was used to determine the non-specific binding.
as §4

C/C(=C\c1ccccc1)CN1CCC(Nc2nccn(CC(=O)N(C)Cc3ccccc3)c2=O)CC1 [1-52]
IC50 (hα2A receptor): 63.1 nM | IC50 (hα2C receptor): 2.51 nM | IC50 (5HT-Transporter): 631 nM

C/C(=C\c1ccccc1)CN1CCC(Nc2nccn(-c3cccc(CN(C)Cc4ccccc4)c3)c2=O)CC1 [1-53]
h-α2A pIC50 (hα2A receptor): 8.4 | h-α2C pIC50 (hα2C receptor): 8.6 | h-5HTT pIC50 (5HT-Transporter): 6.7

C/C(=C\c1ccccc1)CN1CCC(Nc2nccn(-c3ccc(CN(C)Cc4ccccc4)cc3)c2=O)CC1 [1-54]
IC50 (hα2A receptor): 50.1 nM | IC50 (hα2C receptor): 3.98 nM | IC50 (5HT-Transporter): 200 nM

C/C(=C\c1ccccc1)CN1CCC(Nc2nccn(CC(=O)NCc3ccc(F)cc3)c2=O)CC1 [1-55]
IC50 (hα2A receptor): 63.1 nM | IC50 (hα2C receptor): 1.26 nM | IC50 (5HT-Transporter): 316 nM

C/C(=C\c1ccccc1)CN1CCC(Nc2nccn(-c3ccc(C(=O)NCc4ccc(F)cc4)cc3)c2=O)CC1 [1-56]
IC50 (hα2A receptor): 158 nM | IC50 (hα2C receptor): 15.8 nM | IC50 (5HT-Transporter): 251 nM

C/C(=C\c1ccccc1)CN1CCC(Nc2nccn(CC(=O)NCCc3ccccc3)c2=O)CC1 [1-57]
IC50 (hα2A receptor): 126 nM | IC50 (hα2C receptor): 3.98 nM | IC50 (5HT-Transporter): 3160 nM

C/C(=C\c1ccccc1)CN1CCC(Nc2nccn(-c3cccc(NCCc4ccccc4)c3)c2=O)CC1 [1-58]
IC50 (hα2A receptor): 25.1 nM | IC50 (hα2C receptor): 6.31 nM | IC50 (5HT-Transporter): 398 nM

C/C(=C\c1ccccc1)CN1CCC(Nc2nccn(-c3ccc(NCCc4ccccc4)cc3)c2=O)CC1 [1-59]
IC50 (hα2A receptor): 79.4 nM | IC50 (hα2C receptor): 10 nM | IC50 (5HT-Transporter): 1260 nM

C/C(=C\c1ccccc1)CN1CCC(Nc2nccn(CC(=O)NCCCc3ccccc3)c2=O)CC1 [1-60]
IC50 (hα2A receptor): 79.4 nM | IC50 (hα2C receptor): 10 nM | IC50 (5HT-Transporter): 794 nM

C/C(=C\c1ccccc1)CN1CCC(Nc2nccn(CC(=O)N(C)CCc3ccccc3)c2=O)CC1 [1-61]
IC50 (hα2A receptor): 100 nM | IC50 (hα2C receptor): 6.31 nM | IC50 (5HT-Transporter): 1260 nM

C/C(=C\c1ccccc1)CN1CCC(Nc2nccn(CC(=O)NC(C)(C)Cc3ccccc3)c2=O)CC1 [1-62]
IC50 (hα2A receptor): 126 nM | IC50 (hα2C receptor): 3.16 nM | IC50 (5HT-Transporter): 1000 nM

COc1ccc(NC(=O)Cn2ccnc(NC3CCN(C/C(C)=C/c4ccccc4)CC3)c2=O)cc1 [1-63]
IC50 (hα2A receptor): 100 nM | IC50 (hα2C receptor): 12.6 nM | IC50 (5HT-Transporter): 631 nM

COc1ccc(CNC(=O)Cn2ccnc(NC3CCN(C/C(C)=C/c4ccccc4)CC3)c2=O)cc1 [1-64]
IC50 (hα2A receptor): 251 nM | IC50 (hα2C receptor): 12.6 nM | IC50 (5HT-Transporter): 1580 nM

COc1cc(CNC(=O)Cn2ccnc(NC3CCN(C/C(C)=C/c4ccccc4)CC3)c2=O)cc(OC)c1 [1-65]
IC50 (hα2A receptor): 100 nM | IC50 (hα2C receptor): 3.98 nM | IC50 (5HT-Transporter): 794 nM

CCCCN(Cc1ccccc1)C(=O)Cn1ccnc(NC2CCN(C/C(C)=C/c3ccccc3)CC2)c1=O [1-66]
IC50 (hα2A receptor): 79.4 nM | IC50 (hα2C receptor): 12.6 nM | IC50 (5HT-Transporter): 794 nM

C/C(=C\c1ccccc1)CN1CCC(Nc2nccn(CC(=O)N(CCO)Cc3ccccc3)c2=O)CC1 [1-67]
IC50 (hα2A receptor): 100 nM | IC50 (hα2C receptor): 3.16 nM | IC50 (5HT-Transporter): 1000 nM

C/C(=C\c1ccccc1)CN1CCC(Nc2nccn(CC(=O)NCC(c3ccccc3)c3ccccc3)c2=O)CC1 [1-68]
IC50 (hα2A receptor): 158 nM | IC50 (hα2C receptor): 12.6 nM | IC50 (5HT-Transporter): 794 nM
